Measurements: publication PMC9681820, “A PDE10A inhibitor CPL500036 is a novel agent modulating striatal function devoid of most neuroleptic side-effects” (Frontiers in Pharmacology, 2022)

Experiments:
[1] = target: hERG (Homo sapiens, UniProt Q12809); assay: hERG tail current, manual patch-clamp in hERG-HEK-293 transfected cells; format: cell-based
Procedure: The dose-dependent effect of CPL500036 (10^–7 M–10^–5 M) on hERG current was conducted at Centre De Recherches Biologiques (CERB; Baugy, France) using the whole hERG-HEK-293 transfected cell system and manual patch-clamp method. […] Cells were clamped to −80 mV, depolarized to 0 mV for 5 s (to allow activation of hERG current) and repolarized to −50 mV for 5 s (to allow hERG tail current to deactivate). This experimental procedure was repeated at a frequency of 0.06 Hz. Currents were filtered at 1 kHz and acquired at a frequency of 2 kHz. The amplitude of hERG tail current was measured during the repolarizing pulse from 0 mV to −50 mV. […] Currents were measured before and after exposure to CPL500036.

[2] = target: PDE10A (Homo sapiens, UniProt Q9Y233); assay: LabChip microfluidic mobility-shift assay, IC50 against PDE10A; format: biochemical; settings: eight concentrations 0.1 nM to 300 nM, duplicate
Sequence of PDE10A (Q9Y233 whole entry, species assumed): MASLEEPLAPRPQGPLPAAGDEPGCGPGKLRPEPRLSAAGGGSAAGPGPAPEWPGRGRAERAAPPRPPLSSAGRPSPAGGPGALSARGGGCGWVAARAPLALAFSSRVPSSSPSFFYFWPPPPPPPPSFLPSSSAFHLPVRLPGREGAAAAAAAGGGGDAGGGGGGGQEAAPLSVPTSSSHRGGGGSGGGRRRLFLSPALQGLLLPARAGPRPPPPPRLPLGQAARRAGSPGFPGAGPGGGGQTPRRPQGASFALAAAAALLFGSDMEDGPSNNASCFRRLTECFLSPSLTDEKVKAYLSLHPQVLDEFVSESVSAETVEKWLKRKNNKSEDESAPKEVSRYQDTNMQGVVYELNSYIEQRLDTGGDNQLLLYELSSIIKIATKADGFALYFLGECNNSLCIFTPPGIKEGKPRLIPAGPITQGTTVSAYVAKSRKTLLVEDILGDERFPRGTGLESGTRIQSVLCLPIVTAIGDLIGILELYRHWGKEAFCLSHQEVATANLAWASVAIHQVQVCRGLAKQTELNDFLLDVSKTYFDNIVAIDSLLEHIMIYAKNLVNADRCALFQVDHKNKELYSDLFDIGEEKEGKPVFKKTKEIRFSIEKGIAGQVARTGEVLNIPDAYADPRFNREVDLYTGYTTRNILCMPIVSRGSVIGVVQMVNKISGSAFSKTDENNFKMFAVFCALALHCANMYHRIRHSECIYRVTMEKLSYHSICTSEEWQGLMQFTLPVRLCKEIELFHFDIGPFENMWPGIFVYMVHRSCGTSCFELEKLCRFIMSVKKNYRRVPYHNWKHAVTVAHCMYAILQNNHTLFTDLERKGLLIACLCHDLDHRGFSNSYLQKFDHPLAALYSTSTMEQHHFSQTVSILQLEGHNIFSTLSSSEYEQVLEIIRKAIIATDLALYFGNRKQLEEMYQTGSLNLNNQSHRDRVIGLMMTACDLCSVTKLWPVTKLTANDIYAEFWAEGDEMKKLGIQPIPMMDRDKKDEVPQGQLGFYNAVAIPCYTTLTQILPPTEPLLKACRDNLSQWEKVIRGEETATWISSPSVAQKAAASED
Procedure: IC50 determination was assessed using LabChip® microfluid technology (PerkinElmer, Hopkinton, MA, United States) in line with the service-provider’s protocol. CPL500036 was tested at eight concentrations ranging from 0.1 nM to 300 nM. The assay was run on the EZ Reader™ II platform (Caliper Life Sciences, Hopkinton, MA, United States). After the incubation period, levels of the reaction products and remaining substrate were measured. Analyzed data were from duplicate measurement, and IC50 was determined using a variable slope with Prism 5 (GraphPad, San Diego, CA, United States).

[3] = test system: psychosis animal models; design: method as in manuscript in preparation; settings: ref manuscript in preparation; cited from earlier work
[4] = test system: Escherichia coli WP2 uvrA; assay: Ames test; settings: CPL500036 5000µg/plate, n=3
[5] = test system: Salmonella typhimurium TA1537; assay: Ames test; settings: CPL500036 5000µg/plate, n=3
[6] = test system: human; settings: ref Janowska et al., 2019, manuscript in preparation; cited from earlier work
[7] = target: T1, M2 muscarinic (human) receptor (Homo sapiens, UniProt P08172); assay: M2 functional assay, intracellular cAMP (HTRF) in CHO cells, agonist and antagonist mode; format: cell-based
T1 construct: host or cells: CHO-K1
T1 sequence (P08172 whole entry): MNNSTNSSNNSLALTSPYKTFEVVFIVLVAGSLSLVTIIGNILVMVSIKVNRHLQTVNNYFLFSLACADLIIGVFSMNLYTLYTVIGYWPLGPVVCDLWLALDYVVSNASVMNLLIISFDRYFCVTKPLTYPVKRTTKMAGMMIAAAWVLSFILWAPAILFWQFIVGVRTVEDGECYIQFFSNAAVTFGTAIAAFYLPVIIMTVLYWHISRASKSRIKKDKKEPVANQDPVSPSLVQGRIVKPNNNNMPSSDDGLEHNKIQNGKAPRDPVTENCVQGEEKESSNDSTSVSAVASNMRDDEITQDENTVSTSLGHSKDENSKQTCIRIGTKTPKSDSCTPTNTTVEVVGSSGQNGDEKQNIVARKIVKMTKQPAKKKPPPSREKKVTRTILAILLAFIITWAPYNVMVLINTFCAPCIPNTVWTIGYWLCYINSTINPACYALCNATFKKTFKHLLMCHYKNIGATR
Procedure: Binding of CPL500036 was calculated as the percent binding inhibition of a radioactively labeled ligand specific for each target. Enzyme inhibition of CPL500036 was calculated as the percent inhibition of the activity of the control enzyme. “No interaction” was denoted if inhibition ≤ 25% of specific binding of the control. Determination of muscarinic acetylcholine receptor (M2) activity induced by CPL500036 (antagonism and agonism) was undertaken in human recombinant CHO cells by measurement of the intracellular cAMP level according to the service-provider’s protocol. IC50 (concentration causing a half-maximal inhibition of specific binding of the control) or EC50 (concentration causing a half-maximal response of specific binding of the control) and the Hill coefficient were determined by non-linear regression analysis of the competition curves generated with mean replicate values using Hill-equation curve fitting with software developed at Cerep (Celle-Lévescault, France).
Supplementary fig. 1 Assesment of possible allosteric modulation in M2 muscarinic (human) receptor […]
by CPL500036 in CHO cells.
The study was perfomed by Eurofins Cerep (Poitiers, France) according to the service-provider’s protocol. […] Cells were treated for 10 min with CPL500036. cAMP was detected by use of HTRF ( Homogeneous Time Resolved […]

[8] = With metabolic activation (+S9 mix), 2AA 2µg/plate
[9] = Without metabolic activation (-S9 mix), MMS 2µg/plate
[10] = Without metabolic activation (-S9 mix), 9AA 50µg/plate

Sequence of hERG (Q12809 whole entry): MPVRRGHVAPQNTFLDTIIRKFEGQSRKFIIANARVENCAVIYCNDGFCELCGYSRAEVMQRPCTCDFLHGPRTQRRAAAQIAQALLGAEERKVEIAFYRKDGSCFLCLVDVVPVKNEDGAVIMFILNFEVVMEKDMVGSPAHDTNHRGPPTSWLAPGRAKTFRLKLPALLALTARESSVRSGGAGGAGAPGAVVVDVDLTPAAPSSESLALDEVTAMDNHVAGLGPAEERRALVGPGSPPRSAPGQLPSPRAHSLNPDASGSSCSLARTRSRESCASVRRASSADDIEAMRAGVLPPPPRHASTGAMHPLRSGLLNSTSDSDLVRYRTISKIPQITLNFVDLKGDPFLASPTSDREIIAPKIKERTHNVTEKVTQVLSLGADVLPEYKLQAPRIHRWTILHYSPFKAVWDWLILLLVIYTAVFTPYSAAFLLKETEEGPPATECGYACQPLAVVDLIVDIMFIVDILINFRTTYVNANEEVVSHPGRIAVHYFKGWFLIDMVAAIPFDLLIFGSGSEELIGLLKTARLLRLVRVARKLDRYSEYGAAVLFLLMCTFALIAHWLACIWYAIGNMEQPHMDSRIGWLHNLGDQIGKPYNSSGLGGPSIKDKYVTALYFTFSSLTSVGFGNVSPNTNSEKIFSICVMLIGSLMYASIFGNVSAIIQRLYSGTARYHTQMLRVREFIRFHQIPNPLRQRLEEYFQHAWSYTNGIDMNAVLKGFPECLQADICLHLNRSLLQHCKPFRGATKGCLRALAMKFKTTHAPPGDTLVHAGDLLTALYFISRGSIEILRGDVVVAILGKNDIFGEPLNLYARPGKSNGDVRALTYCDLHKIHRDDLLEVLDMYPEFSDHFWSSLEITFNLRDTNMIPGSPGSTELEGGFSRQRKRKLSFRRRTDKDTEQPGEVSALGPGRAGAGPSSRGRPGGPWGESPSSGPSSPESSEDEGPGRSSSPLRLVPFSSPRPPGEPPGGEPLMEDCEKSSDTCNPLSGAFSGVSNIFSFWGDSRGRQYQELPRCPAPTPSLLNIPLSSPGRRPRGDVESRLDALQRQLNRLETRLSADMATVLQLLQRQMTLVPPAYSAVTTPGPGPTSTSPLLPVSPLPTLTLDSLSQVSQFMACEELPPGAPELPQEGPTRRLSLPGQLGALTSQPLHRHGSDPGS

For `Cc1ncc(C)n2nc(-c3ccn4cc(-c5ccccc5)nc4n3)nc12` [CPL500036, 7-[5,8-Dimethyl-(1,2,4)triazolo (1,5-a)pyrazin-2-yl]-2-phenylimidazo (1,2-a) pyrimidine], the “hERG IC25 relative to the IC50 for PDE10A” value [1] was > 3,000 times, the “IC25, inhibition of hERG tail current” value ([1]; hERG-HEK-293 transfected cells, manual patch-clamp, mean ± SD, n = 3) was 3.2 ± 1.6 µM and the IC50 [2] was 0.001 µM. For the same compound, the “dose showing therapeutic activity” value [3] was 0.1 mg/kg, the Mutation rate [4, 8] was 1.76 and the “Revertants Mean±SD” value [4, 8] was 42.3±2.89. The Mutation rate [4, 9] was 1.12, the “Revertants Mean±SD” value [4, 9] was 22.3±2.08 and the Mutation rate [5, 8] was 0.69. For the same compound, the “Revertants Mean±SD” value [5, 8] was 6.0±5.20, the Mutation rate [5, 10] was 0.71 and the “Revertants Mean±SD” value [5, 10] was 4.0±4.36. The bioavailability in human [6] was “bioavailable in human”, the “safety and tolerability in human” value [6] was “generally safe and well tolerated with no serious adverse effects” and the IC50 [7] was 9.2 µM. For the same compound, the agonist-like behavior ([7]; agonistic mode, in presence of methoctramine, CHO cells, cAMP) was “didn’t trigger any agonist-like behavior”.
